Data reported in patent EP4817687A2, “NUCLEOTIDE AND NUCLEOSIDE THERAPEUTIC COMPOSITIONS AND USES RELATED THERETO” (Emory University, priority 2013, dated 2015).
Read-outs that look alike come from different tables or passages of the source.

How the values were obtained:
Human DNA pol α = target: T1, Human DNA pol α (Homo sapiens, UniProt P09884); test: Human DNA Polymerase Inhibition Assay, pol α; type: biochemical
T1 sequence (P09884 1-1462): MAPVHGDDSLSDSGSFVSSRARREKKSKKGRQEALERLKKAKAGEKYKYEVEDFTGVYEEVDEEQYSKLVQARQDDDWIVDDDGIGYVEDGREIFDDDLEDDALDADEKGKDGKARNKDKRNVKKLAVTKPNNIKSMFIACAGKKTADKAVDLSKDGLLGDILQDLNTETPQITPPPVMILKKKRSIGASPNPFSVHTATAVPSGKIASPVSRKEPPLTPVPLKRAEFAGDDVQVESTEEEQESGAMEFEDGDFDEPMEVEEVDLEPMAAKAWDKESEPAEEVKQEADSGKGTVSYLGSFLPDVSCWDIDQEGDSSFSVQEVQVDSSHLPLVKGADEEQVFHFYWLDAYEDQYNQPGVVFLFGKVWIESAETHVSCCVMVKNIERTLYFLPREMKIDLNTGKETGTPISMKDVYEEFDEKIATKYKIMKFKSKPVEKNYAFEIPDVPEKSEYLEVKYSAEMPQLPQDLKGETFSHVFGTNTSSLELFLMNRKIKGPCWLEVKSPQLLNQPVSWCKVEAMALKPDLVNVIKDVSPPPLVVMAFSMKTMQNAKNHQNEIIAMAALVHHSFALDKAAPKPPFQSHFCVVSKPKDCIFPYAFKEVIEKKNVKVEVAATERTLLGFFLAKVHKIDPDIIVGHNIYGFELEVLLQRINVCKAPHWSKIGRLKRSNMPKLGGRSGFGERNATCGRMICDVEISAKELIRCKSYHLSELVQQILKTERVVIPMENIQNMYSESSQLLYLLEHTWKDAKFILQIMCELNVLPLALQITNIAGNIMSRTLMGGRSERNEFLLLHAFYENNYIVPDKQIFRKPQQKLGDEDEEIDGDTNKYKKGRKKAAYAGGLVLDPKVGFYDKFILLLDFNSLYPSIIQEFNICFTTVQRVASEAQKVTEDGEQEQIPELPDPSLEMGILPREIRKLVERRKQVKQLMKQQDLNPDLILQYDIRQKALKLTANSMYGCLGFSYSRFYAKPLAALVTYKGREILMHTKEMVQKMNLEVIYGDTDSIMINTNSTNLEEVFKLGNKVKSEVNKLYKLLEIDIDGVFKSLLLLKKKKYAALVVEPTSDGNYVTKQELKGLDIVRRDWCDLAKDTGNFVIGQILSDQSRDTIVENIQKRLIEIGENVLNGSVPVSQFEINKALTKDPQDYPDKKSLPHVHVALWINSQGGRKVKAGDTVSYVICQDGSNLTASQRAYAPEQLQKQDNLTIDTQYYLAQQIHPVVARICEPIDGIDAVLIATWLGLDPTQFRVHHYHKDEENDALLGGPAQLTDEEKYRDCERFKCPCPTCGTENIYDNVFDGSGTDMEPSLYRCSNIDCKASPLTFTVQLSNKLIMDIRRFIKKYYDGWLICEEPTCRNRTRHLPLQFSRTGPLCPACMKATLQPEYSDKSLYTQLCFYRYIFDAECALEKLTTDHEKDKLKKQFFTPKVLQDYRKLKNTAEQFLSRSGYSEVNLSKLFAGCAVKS

Human DNA pol γ = target: T2, Human DNA pol γ (Homo sapiens, UniProt P54098); test: Human DNA Polymerase Inhibition Assay, pol γ; type: biochemical
T2 sequence (P54098 1-1239): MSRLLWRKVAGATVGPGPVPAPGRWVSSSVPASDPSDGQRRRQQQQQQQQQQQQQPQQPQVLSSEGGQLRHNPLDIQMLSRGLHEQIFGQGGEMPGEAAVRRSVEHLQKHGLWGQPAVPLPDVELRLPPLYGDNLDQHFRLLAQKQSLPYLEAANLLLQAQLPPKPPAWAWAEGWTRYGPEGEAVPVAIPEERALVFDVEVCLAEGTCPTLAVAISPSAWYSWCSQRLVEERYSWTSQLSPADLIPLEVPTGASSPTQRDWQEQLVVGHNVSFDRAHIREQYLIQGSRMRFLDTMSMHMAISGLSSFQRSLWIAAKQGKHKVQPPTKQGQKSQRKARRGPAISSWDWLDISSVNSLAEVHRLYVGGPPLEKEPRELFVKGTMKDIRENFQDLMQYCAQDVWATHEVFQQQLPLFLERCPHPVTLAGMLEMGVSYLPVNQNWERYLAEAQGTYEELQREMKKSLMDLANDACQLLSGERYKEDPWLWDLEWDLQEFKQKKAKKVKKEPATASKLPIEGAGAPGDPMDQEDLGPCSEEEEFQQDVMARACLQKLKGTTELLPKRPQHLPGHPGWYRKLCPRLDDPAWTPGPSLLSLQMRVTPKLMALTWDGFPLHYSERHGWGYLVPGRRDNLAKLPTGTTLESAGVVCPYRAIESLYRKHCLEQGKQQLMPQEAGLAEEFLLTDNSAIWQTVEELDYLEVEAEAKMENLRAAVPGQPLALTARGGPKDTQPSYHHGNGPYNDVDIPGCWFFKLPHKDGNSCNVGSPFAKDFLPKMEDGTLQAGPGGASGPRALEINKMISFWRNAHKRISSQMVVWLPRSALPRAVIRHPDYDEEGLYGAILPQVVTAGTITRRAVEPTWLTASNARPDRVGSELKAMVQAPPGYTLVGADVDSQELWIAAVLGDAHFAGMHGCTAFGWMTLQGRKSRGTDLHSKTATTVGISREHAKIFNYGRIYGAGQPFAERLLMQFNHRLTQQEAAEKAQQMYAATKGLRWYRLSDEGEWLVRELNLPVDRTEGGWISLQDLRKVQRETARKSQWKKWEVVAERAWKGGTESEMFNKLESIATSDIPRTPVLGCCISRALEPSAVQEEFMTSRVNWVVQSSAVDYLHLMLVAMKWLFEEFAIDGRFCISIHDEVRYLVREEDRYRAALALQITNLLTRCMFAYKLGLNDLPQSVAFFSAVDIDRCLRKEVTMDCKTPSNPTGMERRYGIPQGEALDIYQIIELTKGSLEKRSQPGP

[1] = Anti-Dengue assay, toxicity (XTT) in Vero cells; details: monkey
[2] = Anti-Dengue assay, toxicity (XTT) in Huh-7 cells; details: human
Dengue Type 2 = test: Anti-Dengue Virus Cytoprotection Assay, Dengue Type 2

C[C@@]1(O)[C@H](O)[C@@H](COP(=O)(O)OP(=O)(O)OP(=O)(O)O)O[C@H]1n1ccc(=O)[nH]c1=S
IC50 (Human DNA pol α): > 1000 µM | IC50 (Human DNA pol γ): > 1000 µM

CC(C)OC(=O)[C@H](C)NP(=O)(OC[C@H]1O[C@@H](n2ccc(=O)[nH]c2=S)[C@](C)(O)[C@@H]1O)Oc1ccccc1 (stereo partly drawn) [drawing 474]
CC50 [1]: > 100 µM | CC50 [2]: > 100 µM | EC50 (Dengue Type 2; Huh-7, read-out: Dengue Type 2 Huh-7 Cells (EC50 uM)): 5.1 µM | EC50 (Dengue Type 2; Vero, read-out: Dengue Type 2 Vero Cells (EC50 uM)): 2.02 µM
